Test results reported in US20260356860A1, “2-SUBSTITUTED 3,4A,5,7,8,8A-HEXAHYDRO-4H-THIOPYRANO[4,3-DJPYRIMIDIN-4-ONES FOR WOUND TREATMENT” (priority 2022, published 2026).

Test system: C. acnes (derived from ATCC ® 11827 ™)
Assay: Bacteriostasis, log reduction
Format: cell-based

SMILES: COC(=O)NCCOC(C)(C)c1ccc(-c2nc3c(c(=O)[nH]2)CSCC3)cc1 [Compound 18, methyl (2-((2-(4-(4-oxo-3,5,7,8-tetrahydro-4H-thiopyrano[4,3-d]pyrimidin-2-yl)phenyl)propan-2-yl)oxy)ethyl)carbamate]
- Average result (24 h): 10.7 × 10^4
- Log Reduction (24 h): 0.7
- Log Value (24 h): 4.2
- Average result (72 h): 6.5 × 10^3
- Log Reduction (72 h): 1.1
- Log Value (72 h): 3.8
